In patent US8067189B2, “Methods for determining sensitivity to vascular endothelial growth factor receptor-2 modulators by measuring the level of collagen type IV” (Bristol-Myers Squibb Company, priority 2005, dated 2011):

Columns and labels:
[1] = tested on: advanced or metastatic solid tumors; test: Clinical response in phase I dose escalation study CA182-002; format: in vivo, human; conditions: 600 mg/day
Protocol: Blood samples (plasma) for ELISA analysis were obtained from Bristol-Myers Squibb Co. sponsored clinical study CA182-002, which is a phase I dose escalation study to determine the safety, pharmacokinetic, and pharmacodynamics of the example VEGFR-2 inhibitor in patients with advanced or metastatic solid tumors. Blood samples were drawn from patients at screening, pre-dose, and post-dose at 4 hours, Day 1, Day 8, Day 26, and end of treatment. Approximately 60 ml of blood was collected for the protocol specific sampling. Detailed instructions regarding the collection, processing, labeling, handling, storage, and shipment of the specimens were provided in the CA182-002 Laboratory Manual.
Collagen type IV ELISA assays were also examined to see if collagen type IV was useful as a biomarker for clinical response to the example VEGFR-2 inhibitor. […] The reduction in collagen type IV blood levels correlated with clinical evidence of anti-tumor activity. […] Overall, the clinical results from these two evaluable patients confirm the pre-clinical data and indicate that collagen type IV ELISA assay is a clinically useful method to monitor response to a VEGFR-2 modulator(s) such as the example VEGFR-2 inhibitor.

L2987 tumor xenograft = test: In vivo antitumor testing, L2987 tumor xenograft model; design: species or system mouse; conditions: L2987, nude mice, 100 mg/kg 1 qd×26
Protocol: In this example, the Table 2 biomarkers were identified using mouse xenograft tumor models that were treated with the example VEGFR-2 inhibitor.
Tumors were propagated in nude mice as subcutaneous (sc) transplants using tumor fragments obtained from donor mice. Tumor passage occurred approximately every two to four weeks. Tumors were then allowed to grow to the pre-determined size window (usually between 100-200 mg, tumors outside the range were excluded) and animals were evenly distributed to various treatment and control groups. Animals were treated with the example VEGFR-2 inhibitor (100 mg/kg 1 qd×26). Treated animals were checked daily for treatment related toxicity/mortality. […] Tumor response was determined by measurement of tumors with a caliper twice a week, until the tumors reached a predetermined target size of 1 gm or became necrotic. […]
Antitumor activity was determined in terms of primary tumor growth inhibition. This was determined in two ways: (i) calculating the relative median tumor weight (MTW) of treated (T) and control (C) mice at various time points (effects were expressed as % T/C); and (ii) calculating the tumor growth delay (T−C value), defined as the difference in time (days) required for the treated tumors (T) to reach a predetermined target size compared to those of the control group (C). […]

[2] = tested on: complement component 1, q subcomponent, receptor 1 (C1qR1); test: Immunohistochemistry of xenograft tumors; format: in vivo, mouse; conditions: treated xenograft tumors relative to un-treated tumors
Protocol: (§1) Tumors were propagated in nude mice as subcutaneous (sc) transplants using L2987 and HCT-116 cancer cell lines. Tumor passage occurred approximately every two to four weeks. Tumors were then allowed to grow to the pre-determined size window (100-200 mm^3, tumors outside the range were excluded) and animals were evenly distributed to various treatment and control groups. Animals were treated with the example VEGFR-2 inhibitor (100 mg/kg 1 qd×14 days). Treated animals were checked daily for treatment related toxicity/mortality. Each group of animals was weighed before the initiation of treatment (Wt1) and then again following the last treatment dose (Wt2). The difference in body weight (Wt2−Wt1) provided a measure of treatment-related toxicity. Tumor response was determined by measurement of tumors with a caliper twice a week, until the tumors reached a predetermined target size. Animals that were distributed to various treatment and control groups during the study were eventually sacrificed to obtain tumor and blood samples for genomic and protein analysis.
(§2) Tissue specimens collected for IHC were fixed by using 10% formalin. After fixation, the chemical fixative was discarded and the specimens were submerged in 70% ethanol before being embedded in paraffin blocks. Five micron tissue sections were cut from each block and placed on positively charged microscope slides. The tissue slides were de-paraffined by immersing in xylene. The slides were re-hydrated in 100% ethanol, 95% ethanol, and 70% ethanol. After re-hydration, the slides were washed several times with deionized water at room temperature. Multiple antigen retrieval conditions (Citra, Citra Plus, and AR10) were tested by use of the BioGenex EZ-retriever microwave to determine the best conditions. Staining optimization was performed in an automated BioGenex i6000 IHC system for each of the candidate marker antibodies independently. Both treated and un-treated xenografts were stained in the same run to minimize slide to slide variations. […]

[3] = tested on: angiotensin receptor-like 1 (AGTRL1); test: Immunohistochemistry of xenograft tumors; format: in vivo, mouse; conditions: treated xenograft tumors relative to un-treated tumors
Protocol: as §1, §2

[4] = tested on: Collagen type IV (COL4A1); test: Immunohistochemistry of xenograft tumors; format: in vivo, mouse; conditions: treated xenograft tumors relative to un-treated tumors
Protocol: as §1, §2

Cc1cc2c(F)c(Oc3ncnn4cc(OC[C@@H](C)OC(=O)[C@H](C)N)c(C)c34)ccc2[nH]1 [example VEGFR-2 inhibitor, [(1R),2S]-2-Aminopropionic acid 2-[4-(4-fluoro-2-methyl-1H-indol-5-yloxy)-5-methylpyrrolo[2,1-f][1,2,4]triazin-6-yloxy]-1-methylethyl ester]
clinical response ([1]; another patient): did not achieve a clinical response | time patient was on therapy ([1]; another patient, no clinical response): 32 days | clinical response ([1]; one patient with ampulla of vater carcinoma): partial response | time patient remained on therapy ([1]; one patient with ampulla of vater carcinoma, partial response): 126 days | efficacy in mouse xenograft tumor model (L2987 tumor xenograft): highly responsive | IHC staining of C1qR1 around tumor blood vessels following treatment [2]: negative or lesser degree of staining | IHC staining of angiotensin receptor-like 1 (AGTRL1) around tumor blood vessels following treatment [3]: negative or lesser degree of staining | IHC staining of Collagen type IV (COL4A1) around tumor blood vessels following treatment [4]: negative or lesser degree of staining
